From US20150105252A1, “SUBSTITUTED PYRAZOLES AS HERBICIDES” (E I DU PONT DE NEMOURS AND COMPANY, priority 2013, published 2015)

Legend:
blackgrass = assay: Test C preemergence; assay type: in vivo, Alopecurus myosuroides; details: for Blackgrass plant response rating / Plant response rating, Blackgrass: preemergence; for Plant response rating, Blackgrass: scale 0 to 100, 0 = no effect, 100 = complete control
Procedure, shortened: (§1)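 Visual rating, 0–100 scale (0 no effect, 100 complete control), vs untreated controls after 13–15 d greenhouse. Pre: seeds in loam/sand, treated at sowing. Post: plants in peat-based mix, 1- to 4-leaf (2–18 cm). Solvent + surfactant formulation, non-phytotoxic.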

johnsongrass = assay: Test C preemergence; assay type: in vivo, Sorghum halepense; details: for Johnsongrass plant response rating / Plant response rating, Johnsongrass: preemergence; for Plant response rating, Johnsongrass: scale 0 to 100, 0 = no effect, 100 = complete control
Procedure, shortened: as §1

barnyardgrass [1] = assay: Test A postemergence; assay type: in vivo, Echinochloa crus-galli
Procedure, shortened: (§2)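 Both timings tested concurrently in loam/sand soil: preemergence by directed soil spray, postemergence on plants of 2–10 cm at the one- to two-leaf stage. Greenhouse holding period was approximately 10 days before visual injury assessment (0–100, 0 = no effect).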

pigweed = assay: Test C postemergence; assay type: in vivo, Amaranthus retroflexus; details: for Pigweed plant response rating: scale 0 to 100
Procedure, shortened: as §1

lambsquarters = assay: Test C preemergence; assay type: in vivo, Chenopodium album
Procedure, shortened: as §1

chickweed = assay: Test C postemergence; assay type: in vivo, Stellaria media; details: for Chickweed plant response rating: scale 0 to 100
Procedure, shortened: as §1

corn = assay: Test C postemergence; assay type: in vivo, Zea mays; details: for Corn plant response rating: scale 0 to 100
Procedure, shortened: as §1

ducksalad = assay: Test B flood; assay type: in vivo, Heteranthera limosa; details: 250 g ai/ha, visual rating on 0 to 100 scale (0 no effect, 100 complete control), 13 to 15 days
Procedure, shortened: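 2-leaf plants; pots flooded 3 cm over soil; compound added to paddy water, depth kept constant. Greenhouse 13–15 d. Visual rating vs controls, 0–100 scale (100 = complete control); dash = no result.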

crabgrass, large = assay: Test C postemergence; assay type: in vivo, Digitaria sanguinalis; details: for Crabgrass, Large plant response rating: scale 0 to 100
Procedure, shortened: as §1

morningglory = assay: Test A preemergence; assay type: in vivo, Ipomoea spp.
Procedure, shortened: as §2

soybean = assay: Test C preemergence; assay type: in vivo, Glycine max; details: for Soybean plant response rating / Plant response rating, Soybean: preemergence; for Plant response rating, Soybean: scale 0 to 100, 0 = no effect, 100 = complete control
Procedure, shortened: as §1

ryegrass, Italian = assay: Test C postemergence; assay type: in vivo, Lolium multiflorum; details: postemergence
Procedure, shortened: as §1

barnyardgrass [2] = assay: Test C preemergence; assay type: in vivo, Echinochloa crus-galli; details: preemergence
Procedure, shortened: as §1

[3] = 31 g ai/ha, scale 0 to 100 (0 no effect, 100 complete control), 13 to 15 days
[4] = 125 g ai/ha, scale 0 to 100, 0 is no effect, 100 is complete control
[5] = postemergence, 250 g ai/ha, scale 0 to 100 (0 no effect, 100 complete control)
[6] = postemergence, 125 g ai/ha, scale 0 to 100, 0 no effect, 100 complete control
[7] = 250 g ai/ha, scale 0 to 100 (0 no effect, 100 complete control)
[8] = 125 g ai/ha, scale 0 to 100, 0 no effect, 100 complete control
[9] = 31 g ai/ha, visual rating, scale 0 to 100 (0 no effect, 100 complete control), 13 to 15 days
[10] = 62 g ai/ha, scale 0 to 100 (0 no effect, 100 complete control), 13 to 15 days
[11] = 250 g ai/ha, scale 0 to 100, 0 is no effect, 100 is complete control
[12] = Postemergence, 31 g ai/ha, visually evaluated after 13 to 15 days

Structure (SMILES): Cc1cc(C(=O)NCC(F)(F)F)nn1Cc1ccnc(C(F)(F)F)c1 [Compound 74]
- Plant response rating (scale of 0 to 100), Blackgrass (blackgrass; Preemergence, 250 g ai/ha): 90
- Blackgrass plant response rating (blackgrass; [3]): 10
- Plant response rating, Blackgrass (blackgrass; 62 g ai/ha, 13 to 15 days): 85
- Blackgrass plant response rating (blackgrass; [4]): 90
- Plant response rating (scale of 0 to 100), Johnsongrass (johnsongrass; Preemergence, 250 g ai/ha): 100
- Johnsongrass plant response rating (johnsongrass; [3]): 10
- Plant response rating, Johnsongrass (johnsongrass; 62 g ai/ha, 13 to 15 days): 25
- Johnsongrass plant response rating (johnsongrass; [4]): 98
- Barnyardgrass plant response rating (barnyardgrass [1]; Postemergence, 1000 g ai/ha, visual rating after approx. 10 days, 0 to 100 scale (0 no effect, 100 complete control)): 90
- Pigweed plant response rating (pigweed; Postemergence, 31 g ai/ha): 60
- Pigweed plant response rating (pigweed; postemergence, 62 g ai/ha): 65
- Plant response rating, Pigweed (pigweed; [5]): 80
- Plant response rating, Pigweed (pigweed; [6]): 80
- Plant response rating (scale of 0 to 100), Lambsquarters (lambsquarters; Preemergence, 250 g ai/ha): 95
- Lambsquarters plant response rating (lambsquarters; preemergence, 31 g ai/ha, scale 0 to 100 (0 no effect, 100 complete control), 13 to 15 days): 85
- Plant response rating, Lambsquarters (lambsquarters; preemergence, 62 g ai/ha, 13 to 15 days, scale 0 to 100, 0 = no effect, 100 = complete control): 90
- Lambsquarters plant response rating (lambsquarters; preemergence, 125 g ai/ha, scale 0 to 100, 0 is no effect, 100 is complete control): 90
- Chickweed plant response rating (chickweed; Postemergence, 31 g ai/ha): 20
- Chickweed plant response rating (chickweed; postemergence, 62 g ai/ha): 45
- Plant response rating, Chickweed (chickweed; [5]): 55
- Plant response rating, Chickweed (chickweed; [6]): 45
- Corn plant response rating (corn; Postemergence, 31 g ai/ha): 10
- Corn plant response rating (corn; postemergence, 62 g ai/ha): 10
- Plant response rating, Corn (corn; [5]): 55
- Plant response rating, Corn (corn; [6]): 20
- Plant response rating, Ducksalad (ducksalad): 75
- Crabgrass, Large plant response rating (crabgrass, large; Postemergence, 31 g ai/ha): 10
- Crabgrass, Large plant response rating (crabgrass, large; postemergence, 62 g ai/ha): 20
- Plant response rating, Crabgrass, Large (crabgrass, large; [5]): 75
- Plant response rating, Crabgrass, Large (crabgrass, large; [6]): 30
- Morningglory plant response rating (morningglory; Preemergence, 1000 g ai/ha, 0 to 100 scale, 0 no effect, 100 complete control): 100
- Plant response rating (scale of 0 to 100), Soybean (soybean; Preemergence, 250 g ai/ha): 98
- Soybean plant response rating (soybean; [3]): 25
- Plant response rating, Soybean (soybean; 62 g ai/ha, 13 to 15 days): 55
- Soybean plant response rating (soybean; [4]): 85
- Ryegrass, Italian plant response rating (ryegrass, Italian; 62 g ai/ha, scale 0 to 100): 0
- Plant response rating, Ryegrass, Italian (ryegrass, Italian; [7]): 0
- Plant response rating, Ryegrass, Italian (ryegrass, Italian; [8]): 0

Structure (SMILES): CCCc1cc(C(=O)NC(C)C)nn1Cc1cc(C(F)(F)F)nn1C [Compound 201]
- Blackgrass plant response rating (blackgrass; [9]): 85
- Blackgrass plant response rating (blackgrass; [10]): 90
- Plant response rating, Blackgrass (blackgrass; 125 g ai/ha, 13 to 15 days): 90
- Blackgrass plant response rating (blackgrass; [11]): 90
- Johnsongrass plant response rating (johnsongrass; [9]): 85
- Johnsongrass plant response rating (johnsongrass; [10]): 85
- Plant response rating, Johnsongrass (johnsongrass; 125 g ai/ha, 13 to 15 days): 100
- Johnsongrass plant response rating (johnsongrass; [11]): 100
- Barnyardgrass plant response rating (barnyardgrass [1]; Postemergence, 500 g ai/ha, 0 to 100 scale (0 no effect, 100 complete control)): 100
- Barnyardgrass plant response rating (barnyardgrass [1]; postemergence, 125 g ai/ha, about 10 days, visual rating on 0 to 100 scale (0 no effect, 100 complete control)): 80
- Pigweed plant response rating (pigweed; postemergence, 62 g ai/ha): 65
- Plant response rating, Pigweed (pigweed; [5]): 90
- Plant response rating, Pigweed (pigweed; [6]): 80
- Barnyardgrass plant response rating (barnyardgrass [2]; [9]): 98
- Barnyardgrass plant response rating (barnyardgrass [2]; [10]): 100
- Plant response rating, Barnyardgrass (barnyardgrass [2]; 125 g ai/ha, 13 to 15 days, scale 0 to 100, 0 = no effect, 100 = complete control): 100
- Barnyardgrass plant response rating (barnyardgrass [2]; [11]): 100
- Plant response rating (scale of 0 to 100 where 0 is no effect and 100 is complete control), Chickweed (chickweed; [12]): 75
- Chickweed plant response rating (chickweed; postemergence, 62 g ai/ha): 80
- Plant response rating, Chickweed (chickweed; [5]): 85
- Plant response rating, Chickweed (chickweed; [6]): 85
- Plant response rating (scale of 0 to 100 where 0 is no effect and 100 is complete control), Corn (corn; [12]): 10
- Corn plant response rating (corn; postemergence, 62 g ai/ha): 10
- Plant response rating, Corn (corn; [5]): 60
- Plant response rating, Corn (corn; [6]): 15
- Plant response rating, Ducksalad (ducksalad): 95
- Plant response rating (scale of 0 to 100 where 0 is no effect and 100 is complete control), Crabgrass, Large (crabgrass, large; [12]): 15
- Crabgrass, Large plant response rating (crabgrass, large; postemergence, 62 g ai/ha): 10
- Plant response rating, Crabgrass, Large (crabgrass, large; [5]): 50
- Plant response rating, Crabgrass, Large (crabgrass, large; [6]): 15
- Morningglory plant response rating (0 to 100 scale) (morningglory; preemergence, 125 g ai/ha, visual injury approx. 10 days after treatment): 100
- Morningglory plant response rating (morningglory; preemergence, 500 g ai/ha, visual injury after approx. 10 days, 0 to 100 scale (0 no effect, 100 complete control)): 100
- Soybean plant response rating (soybean; [9]): 70
- Soybean plant response rating (soybean; [10]): 85
- Plant response rating, Soybean (soybean; 125 g ai/ha, 13 to 15 days): 95
- Soybean plant response rating (soybean; [11]): 98
- Plant response rating, Ryegrass, Italian (ryegrass, Italian; [7]): 15
- Plant response rating, Ryegrass, Italian (ryegrass, Italian; [8]): 5
